{
  "source": "patent US20060233724A1",
  "about": "“Medicinal composition for peridontal pocket administration containing bisphosphonic acid derivative or its salt as the active ingredient” (Toray Industries, Inc., priority 2002, published 2006)",
  "origin": "cited, not measured here",
  "key": {"[1]": {"system": "involution of alveolar bone, attachment level", "conditions": "canine periodontal disease models, subcutaneous or oral administration"}, "[2]": {"system": "involution of alveolar bone", "conditions": "hamster periodontal disease models"}, "[3]": {"system": "destruction of alveolar bone", "conditions": "canine periodontal disease model, oral administration"}, "[4]": {"system": "destruction of alveolar bone", "conditions": "simian periodontal disease model, oral administration"}, "[5]": {"system": "experimental movement of molars", "conditions": "rat"}},
  "note": "Like-named read-outs stand apart in the source and are kept apart here.",
  "data": [
    {"compound": "O=P(O)(O)C(NC1CCCCCC1)P(=O)(O)O", "note": "[Incadronate disodium, 1-(cycloheptylamino) methylidene-1,1-bisphosphonic acid]", "values": [
      {"measurement": "attachment level", "setting": "[1]", "value": "action of improvement in attachment level"},
      {"measurement": "involution of alveolar bone", "setting": "[1]", "value": "action against involution of alveolar bone"},
      {"measurement": "involution of alveolar bone", "setting": "[2]", "value": "exhibits inhibiting action against involution of alveolar bone"}
    ]},
    {"compound": "NCCCC(O)(P(=O)(O)O)P(=O)(O)O", "note": "[alendronate, 4-amino-1-hydroxybutylidene-1,1-bisphosphonic acid]", "values": [
      {"measurement": "destruction of alveolar bone", "setting": "[3]", "value": "inhibited destruction of alveolar bone"},
      {"measurement": "destruction of alveolar bone", "setting": "[4]", "value": "inhibited destruction of alveolar bone"}
    ]},
    {"compound": "NCCC(O)(P(=O)(O)O)P(=O)(O)O", "note": "[pamidronate]", "values": [
      {"measurement": "effect in experimental movement of molars", "setting": "[5]; local submucosal administration to the palate", "value": "effective"}
    ]},
    {"compound": "O=P(O)(O)C(O)(Cc1cccnc1)P(=O)(O)O", "note": "[risedronate, 1-hydroxy-2-(3-pyridyl)ethylidene-1,1-bisphosphonic acid]", "values": [
      {"measurement": "effect in experimental movement of molars", "setting": "[5]; local administration to the vicinity of first molar", "value": "effective"}
    ]}
  ]
}
